Tested on: Genes belonging to other category
Assay: DNA chip mRNA expression in yeast, genes belonging to other category (Table 9)
Assay type: cell-based, Saccharomyces cerevisiae S288C
Summary of the method: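 Chemical exposure: 2 h, log-phase S. cerevisiae S288C, YPD, 25° C., dose set to inhibit growth without death. Profiling: mRNA labeled by reverse transcription with Cy3- or Cy5-dUTP, hybridized to whole-genome array. Output: fluorescence ratio against untreated culture.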

SMILES: N#Cc1c(Cl)c(Cl)c(Cl)c(C#N)c1Cl [(9), 2,4,5,6-tetrachloro-1,3-benzenedicarbonitrile]
- The level of expressed mRNA in the presence of chemical substance/The level of expressed mRNA in the absence of chemical substance (yeast gene YAL055W): 1.0
- The level of expressed mRNA in the presence of chemical substance/The level of expressed mRNA in the absence of chemical substance (yeast gene YAR010C): 1.2
- The level of expressed mRNA in the presence of chemical substance/The level of expressed mRNA in the absence of chemical substance (yeast gene YBL005W-A): 0.8
- The level of expressed mRNA in the presence of chemical substance/The level of expressed mRNA in the absence of chemical substance (yeast gene YBL041W): 2.8
- The level of expressed mRNA in the presence of chemical substance/The level of expressed mRNA in the absence of chemical substance (yeast gene YBL043W): 0.5
- The level of expressed mRNA in the presence of chemical substance/The level of expressed mRNA in the absence of chemical substance (yeast gene YBL078C): 12.3
- The level of expressed mRNA in the presence of chemical substance/The level of expressed mRNA in the absence of chemical substance (yeast gene YBL102W): 2.3
- The level of expressed mRNA in the presence of chemical substance/The level of expressed mRNA in the absence of chemical substance (yeast gene YBR046C): 4.6
- The level of expressed mRNA in the presence of chemical substance/The level of expressed mRNA in the absence of chemical substance (yeast gene YBR139W): 2.3
- The level of expressed mRNA in the presence of chemical substance/The level of expressed mRNA in the absence of chemical substance (yeast gene YBR177C): 2.1
- The level of expressed mRNA in the presence of chemical substance/The level of expressed mRNA in the absence of chemical substance (yeast gene YBR212W): 2.7
- The level of expressed mRNA in the presence of chemical substance/The level of expressed mRNA in the absence of chemical substance (yeast gene YBR214W): 2.2
- The level of expressed mRNA in the presence of chemical substance/The level of expressed mRNA in the absence of chemical substance (yeast gene YCL020W): 0.9
- The level of expressed mRNA in the presence of chemical substance/The level of expressed mRNA in the absence of chemical substance (yeast gene YCL027W): 0.7
- The level of expressed mRNA in the presence of chemical substance/The level of expressed mRNA in the absence of chemical substance (yeast gene YCL033C): 2.3
- The level of expressed mRNA in the presence of chemical substance/The level of expressed mRNA in the absence of chemical substance (yeast gene YCL067C): 1.4
- The level of expressed mRNA in the presence of chemical substance/The level of expressed mRNA in the absence of chemical substance (yeast gene YCR004C): 4.7
- The level of expressed mRNA in the presence of chemical substance/The level of expressed mRNA in the absence of chemical substance (yeast gene YCR062W): 0.7
- The level of expressed mRNA in the presence of chemical substance/The level of expressed mRNA in the absence of chemical substance (yeast gene YCR071C): 0.6
- The level of expressed mRNA in the presence of chemical substance/The level of expressed mRNA in the absence of chemical substance (yeast gene YCR088W): 0.8
- The level of expressed mRNA in the presence of chemical substance/The level of expressed mRNA in the absence of chemical substance (yeast gene YDL007W): 3.8
- The level of expressed mRNA in the presence of chemical substance/The level of expressed mRNA in the absence of chemical substance (yeast gene YDL008W): 2.3
- The level of expressed mRNA in the presence of chemical substance/The level of expressed mRNA in the absence of chemical substance (yeast gene YDL018C): 1.0
- The level of expressed mRNA in the presence of chemical substance/The level of expressed mRNA in the absence of chemical substance (yeast gene YDL065C): 2.4
- The level of expressed mRNA in the presence of chemical substance/The level of expressed mRNA in the absence of chemical substance (yeast gene YDL197C): 2.6
- The level of expressed mRNA in the presence of chemical substance/The level of expressed mRNA in the absence of chemical substance (yeast gene YDL229W): 1.4
- The level of expressed mRNA in the presence of chemical substance/The level of expressed mRNA in the absence of chemical substance (yeast gene YDL230W): 2.6
- The level of expressed mRNA in the presence of chemical substance/The level of expressed mRNA in the absence of chemical substance (yeast gene YDL238C): 1.7
- The level of expressed mRNA in the presence of chemical substance/The level of expressed mRNA in the absence of chemical substance (yeast gene YDR055W): 0.8
- The level of expressed mRNA in the presence of chemical substance/The level of expressed mRNA in the absence of chemical substance (yeast gene YDR084C): 0.6
- The level of expressed mRNA in the presence of chemical substance/The level of expressed mRNA in the absence of chemical substance (yeast gene YDR085C): 0.4
- The level of expressed mRNA in the presence of chemical substance/The level of expressed mRNA in the absence of chemical substance (yeast gene YDR099W): 2.4
- The level of expressed mRNA in the presence of chemical substance/The level of expressed mRNA in the absence of chemical substance (yeast gene YDR104C): 2.8
- The level of expressed mRNA in the presence of chemical substance/The level of expressed mRNA in the absence of chemical substance (yeast gene YDR115W): 1.1
- The level of expressed mRNA in the presence of chemical substance/The level of expressed mRNA in the absence of chemical substance (yeast gene YDR125C): 0.7
- The level of expressed mRNA in the presence of chemical substance/The level of expressed mRNA in the absence of chemical substance (yeast gene YDR188W): 2.9
- The level of expressed mRNA in the presence of chemical substance/The level of expressed mRNA in the absence of chemical substance (yeast gene YDR257C): 3.0
- The level of expressed mRNA in the presence of chemical substance/The level of expressed mRNA in the absence of chemical substance (yeast gene YDR259C): 1.0
- The level of expressed mRNA in the presence of chemical substance/The level of expressed mRNA in the absence of chemical substance (yeast gene YDR315C): 1.1
- The level of expressed mRNA in the presence of chemical substance/The level of expressed mRNA in the absence of chemical substance (yeast gene YDR358W): 2.9
- The level of expressed mRNA in the presence of chemical substance/The level of expressed mRNA in the absence of chemical substance (yeast gene YDR388W): 1.4
- The level of expressed mRNA in the presence of chemical substance/The level of expressed mRNA in the absence of chemical substance (yeast gene YDR427W): 2.3
- The level of expressed mRNA in the presence of chemical substance/The level of expressed mRNA in the absence of chemical substance (yeast gene YDR432W): 0.7
- The level of expressed mRNA in the presence of chemical substance/The level of expressed mRNA in the absence of chemical substance (yeast gene YDR481C): 1.9
- The level of expressed mRNA in the presence of chemical substance/The level of expressed mRNA in the absence of chemical substance (yeast gene YDR506C): 1.9
- The level of expressed mRNA in the presence of chemical substance/The level of expressed mRNA in the absence of chemical substance (yeast gene YDR510W): 2.7
- The level of expressed mRNA in the presence of chemical substance/The level of expressed mRNA in the absence of chemical substance (yeast gene YDR515W): 5.8
- The level of expressed mRNA in the presence of chemical substance/The level of expressed mRNA in the absence of chemical substance (yeast gene YEL042W): 0.2
- The level of expressed mRNA in the presence of chemical substance/The level of expressed mRNA in the absence of chemical substance (yeast gene YEL052W): 3.0
- The level of expressed mRNA in the presence of chemical substance/The level of expressed mRNA in the absence of chemical substance (yeast gene YEL066W): 1.3

Reference: patent US8192962B2, “Processes for detecting toxic substances” (Daikin Industries, Ltd., priority 2001, dated 2012)
